Results published in BindingDB's records for doi:10.7270/Q21V5H4F (n/a, 1992).

Target: HIV-1 RT (reverse transcriptase)
Experiment: Inhibitory concentration against HIV-1 RT was determined

## O=C(C[C@H]1C(=O)Nc2ccccc2-c2cccn21)OCc1ccccc1
  IC50: 115 nM
